{"source": "patent US20250339447A1", "about": "“19-NOR C3,3-DISUBSTITUTED C21-N-PYRAZOLYL STEROID AND METHODS OF USE THEREOF” (Sage Therapeutics, Inc., priority 2018, published 2025)", "key": {"subjects with MDD [1]": {"test_system": "subjects with MDD", "assay": "HAM-D course to Day 42 after a Compound 1 treatment cycle (source study not given)", "assay_type": "in vivo, human", "description": "Because of this, most subjects were eligible (i.e., PHQ-9 ≥10 and HAM-D ≥20 confirmed over 2 weeks) for a Compound 1 treatment cycle when needed; a 2-week period was required to establish a new MDE (DSM-5)."}, "[2]": {"test_system": "female subjects diagnosed with severe postpartum depression", "assay": "Placebo-controlled study of Compound 1 capsules in severe postpartum depression (Example 1)", "assay_type": "in vivo, human", "protocol": "Compound 1 was investigated for use in subjects with depression. Female subjects (18-65 years old) diagnosed with severe postpartum depression (PDD) with a HAM-D total score of greater than or equal to 26 at screening and Day 1 were used in the investigation. The subjects were dosed once per day with capsules containing 30 mg of Compound 1. The dose could be adjusted to capsules containing 20 mg of Compound 1 if the 30 mg dose was not tolerated. Subjects not dosed with Compound 1 were dosed with a placebo. In total, 78 subjects were treated with Compound 1 at 30 mg and 73 subjects were treated with placebo.\nAssuming a 2-sided test at an alpha level of 0.05, a sample size of approximately 65 evaluable subjects per treatment group provided 90% power to detect a placebo-adjusted treatment difference of approximately 4 points in the primary endpoint, change from baseline in HAM-D total score at Day 15 assuming standard deviation (SD) of 7 points. The change from baseline in the HAM-D total score was analyzed using a mixed effects model for repeated measures (MMRM). The model included the change from baseline at each visit as the dependent variable. The main comparison was (difference in least mean square [LSMEAN]) between Compound 1 Capsules and placebo at the 15-day timepoint.\nFor Model-based point estimates (i.e., LSMEAN, 95% confidence intervals, and p-values), an unstructured covariance structure was used to model the within-subject errors. If there was a convergence issue with the unstructured covariance model, Toeplitz, compound symmetry or Autoregressive (1) (AR[1]) covariance structure was used, following this sequence until convergence was achieved. […] When the covariance structure was not UN, the sandwich estimator for the variance-covariance matrix was derived, using the EMPIRICAL option in the PROC MIXED statement in SAS.\nSimilarly, an MMRM was used for the analysis of the following variables: changes from baseline in MADRS total score and HAM-A total score, and select individual item and subscale scores. For each model, the comparison of interest was between Compound 1 Capsules and matching placebo at the 15-day time point. Model-based point estimates (i.e., LS means), 95% confidence intervals, and p-values were reported."}, "subjects with MDD [3]": {"test_system": "subjects with MDD", "assay": "Phase 2 study in subjects with MDD (dose justification)", "assay_type": "in vivo, human", "settings": "30 mg per day", "description": "(§1) Dose adjustments to 20-mg of Compound 1 were permitted; 20-mg of Compound 1 was anticipated to be well tolerated as it was lower than the maximum tolerated dose level."}, "[4]": {"test_system": "adult patients diagnosed with MDD (MADRS total score ≥32 and HAM-D total score ≥22)", "assay": "Double-blind, randomized placebo-controlled Phase 3 study in Major Depressive Disorder (Example 5)", "assay_type": "in vivo, human", "settings": "for overall incidence of patients who experienced AEs: 14-day treatment period and 28-day follow up, placebo 48.9%; for Fatigue incidence: placebo 2.6%; for Sedation incidence / treatment emergent AEs leading to study drug discontinuation: placebo 3.2%; for Dizziness incidence: placebo 3.7%; for Somnolence incidence: placebo 4.2%; for Nausea incidence: placebo 4.7%; for Diarrhea incidence: placebo 5.3%; for Headache incidence: treatment and 28-day follow up, placebo 7.4%", "protocol": "Compound 1 was evaluated in a double-blind, randomized placebo-controlled Phase 3 study in Major Depressive Disorder (MDD). The evaluated the efficacy, safety and pharmacokinetics of Compound 1 in adult patients diagnosed with MDD (MADRS total score ≥32 and a HAM-D total score ≥22).\nCompound 1 was administered to a patient, either in 20 mg daily doses once a day for 14 days or 30 mg once a day for 14 days.\nPost-hoc analyses were conducted to evaluate the effects of performance factors of Compound 1 in the primary analysis, in patients with measurable drug concentrations, in patients with HAM-D≥24, and in patients with measurable drug concentrations and HAM-D≥24, and including the primary outcome at Day 15 (FIG. 11)."}, "[5]": {"test_system": "synaptic and extrasynaptic GABAA receptors", "assay": "Modulation of GABAA receptors", "settings": "stated in background"}, "[6]": {"assay": "Previous clinical trials, morning versus evening administration", "assay_type": "in vivo, human", "description": "as §1"}, "[7]": {"settings": "Day 42, among subjects achieving remission or response at Day 15"}}}
{"smiles": "C[C@@]1(O)CC[C@H]2[C@H](CC[C@@H]3[C@@H]2CC[C@]2(C)[C@@H](C(=O)Cn4cc(C#N)cn4)CC[C@@H]32)C1", "note": "[Compound 1]", "values": [{"measurement": "subjects achieving remission or response", "setting": "subjects with MDD [1]; Day 15", "result": 78.6, "unit": "%"}, {"measurement": "subjects with HAM-D score of 16 to 21", "setting": "subjects with MDD [1]; [7]", "result": 18.2, "unit": "%"}, {"measurement": "subjects with HAM-D ≥22", "setting": "subjects with MDD [1]; [7]", "result": 6.1, "unit": "%"}, {"measurement": "overall efficacy conclusion", "setting": "[2]; 30 mg once a day for 15 days, compared to placebo", "result": "effective at treating postpartum depression"}, {"measurement": "mean decrease from baseline in HAM-D total score", "setting": "[2]; 30 mg once daily, Day 15, mean baseline 28.4 (2.09), placebo −13.6 (8.31)", "result": "−18.0 (8.36)"}, {"measurement": "model-based between treatment group difference in HAM-D total score change (95% CI)", "setting": "[2]; 30 mg vs placebo, Day 15, MMRM, p 0.0029", "result": "−4.2 (−6.9, −1.5)"}, {"measurement": "model-based between treatment group difference in HAM-A total score change (95% CI)", "setting": "[2]; 30 mg vs placebo, Day 15, p 0.0063", "result": "−3.90 (−6.7, −1.1)"}, {"measurement": "model-based between treatment group difference in MADRS total score change (95% CI)", "setting": "[2]; 30 mg vs placebo, Day 15, p=0.0182", "result": "−4.6 (−8.3, −0.8)"}, {"measurement": "CGI-I response, model-based odds ratio (95% CI)", "setting": "[2]; 30 mg vs placebo, Day 15, p=0.0280", "result": "2.15 (1.09, 4.27)"}, {"measurement": "HAM-D response, model-based odds ratio (95% CI)", "setting": "[2]; 30 mg vs placebo, p=0.0050", "result": "2.63 (1.34, 5.16)"}, {"measurement": "HAM-D remission, model-based odds ratio (95% CI)", "setting": "[2]; 30 mg vs placebo, p=0.0122", "result": "2.50 (1.22, 5.11)"}, {"measurement": "CGI-I response rate", "setting": "[2]; 30 mg, Day 15, 53/74 subjects, placebo 38/73 (52.1%)", "result": 71.6, "unit": "%"}, {"measurement": "mean decrease from baseline in MADRS total score", "setting": "[2]; 30 mg, Day 15, baseline 34.9 (4.41), placebo −17.7 (11.72)", "result": "−22.0 (11.64)"}, {"measurement": "mean decrease from baseline in HAM-A total score", "setting": "[2]; 30 mg, Day 15, mean baseline 26.1 (5.88), placebo −12.9 (8.57)", "result": "−16.5 (9.51)"}, {"measurement": "HAM-D remission rate", "setting": "[2]; 30 mg, 33/74 subjects, placebo 17/73 (23.3%)", "result": 44.6, "unit": "%"}, {"measurement": "HAM-D response rate", "setting": "[2]; 30 mg, 53/74 subjects, placebo 35/73 (47.9%)", "result": 71.6, "unit": "%"}, {"measurement": "efficacy and tolerability of the dose level", "setting": "subjects with MDD [3]", "result": "efficacious and well-tolerated"}, {"measurement": "tolerability in the trial", "setting": "[4]; 20 mg and 30 mg", "result": "generally well tolerated"}, {"measurement": "separation from placebo", "setting": "[4]; 20 mg once a day for 14 days", "result": "did not separate from placebo"}, {"measurement": "overall incidence of patients who experienced AEs", "setting": "[4]; 20 mg", "result": 50.0, "unit": "%"}, {"measurement": "patients reporting SAEs during follow-up", "setting": "[4]; 20 mg, complications of cocaine ingestion, Day 39", "result": "one"}, {"measurement": "Fatigue incidence", "setting": "[4]; 20 mg", "result": 1.6, "unit": "%"}, {"measurement": "Sedation incidence", "setting": "[4]; 20 mg", "result": 5.9, "unit": "%"}, {"measurement": "treatment emergent AEs leading to study drug discontinuation", "setting": "[4]; 20 mg", "result": 1.6, "unit": "%"}, {"measurement": "Dizziness incidence", "setting": "[4]; 20 mg", "result": 7.4, "unit": "%"}, {"measurement": "Somnolence incidence", "setting": "[4]; 20 mg", "result": 5.9, "unit": "%"}, {"measurement": "Nausea incidence", "setting": "[4]; 20 mg", "result": 5.3, "unit": "%"}, {"measurement": "Diarrhea incidence", "setting": "[4]; 20 mg", "result": 5.9, "unit": "%"}, {"measurement": "Headache incidence", "setting": "[4]; 20 mg", "result": 11.2, "unit": "%"}, {"measurement": "HAM-D total score, LS Mean Difference from placebo", "setting": "[4]; 30 mg (n=166) vs placebo (n=157), Day 3, p=0.016", "result": "−1.6"}, {"measurement": "reduction in depressive symptoms in the HAM-D total score", "setting": "[4]; 30 mg once a day for 14 days, Day 15 (primary endpoint), placebo 11.2", "result": 12.6}, {"measurement": "HAM-D total score, LS Mean Difference, post-hoc", "setting": "[4]; 30 mg vs placebo, Day 15, patients with HAM-D≥24, p=0.032", "result": "−2.3"}, {"measurement": "HAM-D total score, LS Mean Difference from placebo", "setting": "[4]; 30 mg, Day 8, p=0.008", "result": "−2.1"}, {"measurement": "HAM-D total score, LS Mean Difference from placebo", "setting": "[4]; 30 mg, Day 12, p=0.018", "result": "−2.1"}, {"measurement": "HAM-D total score, LS Mean Difference from placebo", "setting": "[4]; 30 mg, Day 15, p=0.115", "result": "−1.4"}, {"measurement": "change from baseline in HAM-D total score, post-hoc", "setting": "[4]; 30 mg, Day 15, patients with HAM-D≥24 (n=124), placebo −11.4", "result": "−13.7"}, {"measurement": "change from baseline in HAM-D total score, post-hoc", "setting": "[4]; 30 mg, Day 15, patients with measurable drug concentrations (n=151), placebo −11.2", "result": "−13.0"}, {"measurement": "change from baseline in HAM-D total score, post-hoc", "setting": "[4]; 30 mg, Day 15, patients with measurable drug concentrations and HAM-D≥24 (n=115), placebo −11.4", "result": "−14.0"}, {"measurement": "HAM-D total score, LS Mean Difference from placebo", "setting": "[4]; 30 mg, Day 42, p=0.807", "result": "−0.5"}, {"measurement": "change from baseline in HAM-D total score", "setting": "[4]; 30 mg, Day 42, placebo −11.7", "result": "−11.9"}, {"measurement": "overall incidence of patients who experienced AEs", "setting": "[4]; 30 mg", "result": 54.2, "unit": "%"}, {"measurement": "Fatigue incidence", "setting": "[4]; 30 mg", "result": 6.8, "unit": "%"}, {"measurement": "Sedation incidence", "setting": "[4]; 30 mg", "result": 4.7, "unit": "%"}, {"measurement": "treatment emergent AEs leading to study drug discontinuation", "setting": "[4]; 30 mg", "result": 2.1, "unit": "%"}, {"measurement": "Dizziness incidence", "setting": "[4]; 30 mg", "result": 5.7, "unit": "%"}, {"measurement": "Somnolence incidence", "setting": "[4]; 30 mg", "result": 6.8, "unit": "%"}, {"measurement": "Nausea incidence", "setting": "[4]; 30 mg", "result": 3.6, "unit": "%"}, {"measurement": "Diarrhea incidence", "setting": "[4]; 30 mg", "result": 6.3, "unit": "%"}, {"measurement": "patients with serious adverse events (SAEs) during treatment", "setting": "[4]; 30 mg, suicide attempt Day 5, bile duct stone after Day 2", "result": "Two"}, {"measurement": "patients reporting SAEs during follow-up", "setting": "[4]; 30 mg, syncope and associated injuries, Day 28", "result": "one"}, {"measurement": "Headache incidence", "setting": "[4]; 30 mg", "result": 6.3, "unit": "%"}, {"measurement": "AEs of loss of consciousness", "setting": "[4]; all groups", "result": "no AEs of loss of consciousness"}, {"measurement": "suicidal ideation or behavior by Columbia Suicide Severity Rating Scale (C-SSRS)", "setting": "[4]; compared to baseline", "result": "no signal for increased suicidal ideation or suicidal behavior"}, {"measurement": "depressive symptoms in long-term follow-up", "setting": "[4]; patients who completed long-term follow-up up to 6 months, preliminary data", "result": "maintenance of improvement in depressive symptoms"}, {"measurement": "mode of action at GABAA receptors", "setting": "[5]", "result": "positive allosteric modulator"}, {"measurement": "adverse effect observed", "setting": "[6]; administered in the morning", "result": "sedation/somnolence"}, {"measurement": "tolerability", "setting": "[6]; given in the evening", "result": "improved tolerability"}]}
